The text below walks through data of patent US10294204B2, “Fluorescence compounds and preparation method thereof” (BioActs Co., Ltd., priority 2016, dated 2019).

What all share (type): physicochemical
Data set [1] can be described thus: Test Example 1: absorption and fluorescence intensity with and without the alkylcarboxyaminocyanuric chloride substituent. The method, then:
According to [Chemical Formula 1] disclosed herein, compounds to which a substituent including cyanuric chloride bound with an aminoalkylcarboxylic acid is introduced are prepared and optical properties thereof are compared with each other. Glycine is used as an aminoalkylcarboxylic acid to obtain Compound 1 (Example 1.7) disclosed herein, and the optical properties thereof are compared with those of the compound (Example 1.3) including no alkylcarboxyamino cyanuric chloride substituent introduced thereto.
At the same concentration, the compounds of Example 1.7 and Example 1.3 are determined for absorption wavelength and intensity and the results are shown in FIG. 1A. […] To perform accurate comparison of fluorescence wavelength intensity, the concentration of each of the compounds of Example 1.7 and Example 1.3 is corrected so that they may have the same absorption intensity, and then the fluorescence wavelength and intensity of each compound are determined.

Data set [2] in a line: Test Example 4 (1),(2): fluorescence intensity of free dye versus reference fluorescent dye. As to the method: Compound 20 and a reference fluorescent dye (Alexa Fluor 647 NHS ester) are compared with each other in terms of fluorescence intensity. DMF is added to the two types of fluorescent dyes to provide stock solutions and each solution is adjusted to the same concentration of 10 mg/mL. Next, pH 7.4 10 mM phosphate buffered saline (hereinafter, 1×PBS) is used to dilute the solution to a concentration of 19.5 nM and fluorescence is determined under the setting of Excitation 560 nm. The fluorescence determination is carried out by using LS 55 Fluorescence spectrometer (Perkin Elmer).
Compound 18 and a reference fluorescent dye (Alexa Fluor 555 NHS ester) are compared with each other in terms of fluorescence intensity. DMF is added to the two types of fluorescent dyes to provide stock solutions and each solution is adjusted to the same concentration of 10 mg/mL. Next, pH 7.4 10 mM phosphate buffered saline (hereinafter, 1×PBS) is used to dilute the solution to a concentration of 19.5 nM and fluorescence is determined under the setting of Excitation 552 nm. The fluorescence determination is carried out by using LS 55 Fluorescence spectrometer (Perkin Elmer).

Data set [3] is described as follows: Test Example 4 (3),(4): relative quantum yield based on Rhodamine 6G. Conditions: pH 7.4 1xPBS. The method, then:
(§1) Based on Rhodamine 6G (TCI), relative quantum yield of Compound 20 and that of the reference fluorescent dye (Alexa Fluor 647 NHS ester) are determined. DMF is added to the two types of fluorescent dyes and Rhodamine 6G to 10 mg/mL to provide stock solutions. Next, pH 7.4 1×PBS is used to dilute the solutions to a concentration of 10 μM and absorption and fluorescence are determined. Herein, 1/2 dilution is carried out from a concentration of 10 μM and then absorption and fluorescence are determined 10 times totally up to the sample of 1/512× concentration. The determined values are introduced to the following Mathematical Formula 1 to analyze the relative quantum yield and the results are shown in the following Table 3 and FIG. 6.
[formula] • Q=Quantum Yield • I=Fluorophore • OD=Absorbance • SubscriptR=Rodamine 6G
as §1, with “18” for “20”, “555” for “647”, “to” for “to the following”, “yield. The” for “yield and the results are shown in the”, “4” for “3”, “7 show the relative quantum yield of each dye.” for “6.”

Data set [4] can be described thus: Test Example 2: fluorescence intensity as a function of concentration in PBS (plate reader), same absorption intensity. Set-up: increment of fluorescence intensity compared to Compound 19: dose or concentration left out as unconfirmed. As to the method:
To determine a change in optical properties when the compound of [Chemical Formula 1] disclosed herein is modified to allow labeling of a biomolecule, an N-succinimidyl group is introduced to each of Compound 9.7 and Compound 10 to obtain Compound 19 and Compound 20, respectively, in the same manner as described hereinabove. Then, fluorescence characteristics are compared at the same absorption wavelength intensity.
Each of Compound 19 and Compound 20 is added to 5 mL of PBS at a concentration of 10 mg/mL at room temperature to provide samples. Next, 1 mL of PBS is added to 2 mL of each sample and the intensity is measured as a function of absorption wavelength. After adjusting the concentration of a sample so that the absorption intensity (Abs at 650 nm) of Compound 19 may be the same as that of Compound 20 from the resultant data, the sample is diluted many times and the fluorescence thereof is determined by using a plate reader (Perkin Elmer).

`CC[N+]1=C(/C=C/C=C2/N(CCCCCC(=O)NNc3nc(Cl)nc(NCC(=O)O)n3)c3ccc(S(=O)(=O)O)cc3C2(C)C)C(C)(C)c2cc(S(=O)(=O)[O-])ccc21` [Compound 1]: in data set [1] (concentration corrected to same absorption intensity, FIG. 1B), the “intensity of fluorescence wavelength relative to Example 1.3” value is “approximately two times higher”.
In the case of `CC1(CCCCCC(=O)NCCCNc2nc(Cl)nc(NCCCCCC(=O)ON3C(=O)CCC3=O)n2)C(/C=C/C=C2/N(CCCS(=O)(=O)O)c3ccc(S(=O)(=O)O)cc3C2(C)C)=[N+](CCCS(=O)(=O)O)c2ccc(S(=O)(=O)[O-])cc21` (stereo not drawn) [Compound 18], the “fluorescence intensity versus reference fluorescent dye (Alexa Fluor 555 NHS ester)” value in data set [2] (19.5 nM in 1xPBS pH 7.4, Excitation 552 nm, FIG. 5) is listed as “relatively higher fluorescence intensity”. In addition, the “Relative quantum yield (%)” value in data set [3] (552 compound) came to 13.34%.
As to `CC1(CCCCCC(=O)ON2C(=O)CCC2=O)C(/C=C/C=C/C=C2/N(CCCS(=O)(=O)O)c3ccc(S(=O)(=O)O)cc3C2(C)C)=[N+](CCCS(=O)(=O)[O-])c2ccc(S(=O)(=O)O)cc21` (stereo not drawn) [Compound 19], the “Average fluorescence intensity (at 665 nm)” value in data set [4] (3 nM in PBS) amounted to 412.0; in data set [4] (6 nM in PBS) it was 810.7; in data set [4] (12 nM in PBS) it was 1673.0; in data set [4] (25 nM in PBS) it was 3336.7; in data set [4] (49 nM in PBS) it was 6483.7; in data set [4] (98 nM in PBS) it was 12523.0. For the same compound, the “Average fluorescence intensity (at 665 nm)” value in data set [4] (196 nM in PBS) turned out to be 24679.7; in data set [4] (393 nM in PBS), 48611.7; in data set [4] (785 nM in PBS) it was 91308.7; in data set [4] (1570 nM in PBS) it was 160778.3; in data set [4] (3140 nM in PBS), 240494.7; in data set [4] (6280 nM in PBS) it was 308345.7.
`CC1(CCCCCC(=O)NCCCNc2nc(Cl)nc(NCCCCCC(=O)ON3C(=O)CCC3=O)n2)C(/C=C/C=C/C=C2/N(CCCS(=O)(=O)O)c3ccc(S(=O)(=O)O)cc3C2(C)C)=[N+](CCCS(=O)(=O)[O-])c2ccc(S(=O)(=O)O)cc21` (stereo not drawn) [Compound 20]: the “fluorescence intensity versus reference fluorescent dye (Alexa Fluor 647 NHS ester)” value in data set [2] (19.5 nM in 1xPBS pH 7.4, Excitation 560 nm, FIG. 4) was “relatively higher fluorescence intensity”. Further, the “Average fluorescence intensity (at 665 nm)” value in data set [4] (3 nM in PBS) was found to be 313.3; in data set [4] (6 nM in PBS), 721.3; in data set [4] (12 nM in PBS), 1454.7; in data set [4] (25 nM in PBS), 2994.3; in data set [4] (49 nM in PBS) it was 6693.3; in data set [4] (98 nM in PBS), 13859.7. The “Average fluorescence intensity (at 665 nm)” value was 29396.3 in data set [4] (196 nM in PBS); 59756.7 in data set [4] (393 nM in PBS); 118049.0 in data set [4] (785 nM in PBS); 209850.3 in data set [4] (1570 nM in PBS); 321865.0 in data set [4] (3140 nM in PBS); 418428.3 in data set [4] (6280 nM in PBS). Besides, in data set [4] (FIG. 2), the “increment of fluorescence intensity compared to Compound 19” value is given as “about 40%”. In data set [3] (650 compound), the “Relative quantum yield (%)” value was determined as 11.70%.
As to `CC[N+]1=C(/C=C/C=C2/N(CCCCCC(=O)O)c3ccc(S(=O)(=O)O)cc3C2(C)C)C(C)(C)c2cc(S(=O)(=O)[O-])ccc21` [Example 1.3], in data set [1] (same concentration, Example 1.7 versus Example 1.3, FIG. 1A), the absorption wavelength intensity result was “slightly higher”.
With “Alexa Fluor 555 NHS ester [reference compound]”, the “Relative quantum yield (%)” value in data set [3] (552 compound) is reported as 5.64%.
Take “Alexa Fluor 647 NHS ester [reference compound]”: the “Relative quantum yield (%)” value in data set [3] (650 compound) worked out at 7.79%.
